Experimental data reported in US6608083B1, “Quinoline derivatives(2)” (SmithKline Beecham Farmaceutici S.p.A, priority 1994, dated 2003).
Structures can show the parent of a compound that is named as a salt.

tested on: not given; experiment: not given

Compound	melting point
COC(=O)[C@H](NC(=O)c1cc(-c2ccccc2)nc2ccccc12)c1ccc(O)cc1.Cl	140 °C (dec.)
O=C(NC(C(=O)O)c1ccccc1)c1cc(-c2ccccc2)nc2ccccc12 (stereo not shown) (as salt: HCl) [Example 92]	203 to 205 °C
COC(=O)C(NC(=O)c1cc(-c2ccccc2)nc2ccccc12)C1=CCC=CC1 (stereo not shown) [Example 16]	120 to 122 °C
C[C@H](O)[C@H](NC(=O)c1cc(-c2ccccc2)nc2ccccc12)c1ccccc1 [Example 17, (R,S)-N-[α-(1-hydroxyethyl)benzyl]-2-phenylquinoline-4-carboxamide]	204 to 205 °C
CCC(NC(=O)c1c(OC)c(-c2ccccc2)nc2ccccc12)c1ccccc1 (stereo not shown) [Example 18]	163 to 165 °C
CCCCc1c(-c2ccccc2)nc2ccccc2c1C(=O)NC(CC)c1ccccc1 (stereo not shown) [Example 19]	147 to 150 °C
COC(=O)C(NC(=O)c1c2c(nc3ccccc13)-c1ccccc1CCC2)c1ccccc1 (stereo not shown) [Example 20]	186 to 188 °C
COC(=O)C(NC(=O)c1cc(-c2ccccc2OC)nc2ccccc12)c1ccccc1 (stereo not shown) [Example 24]	124 to 125 °C
CCC(NC(=O)c1c(-c2ccccc2)c(-c2ccccc2)nc2ccccc12)c1ccccc1 (stereo not shown) [Example 25]	198 to 200 °C
COC(=O)C(NC(=O)c1cc(-c2ccccc2F)nc2ccccc12)c1ccccc1 (stereo not shown) [Example 26]	146 to 147 °C
CCC(NC(=O)c1cc(-c2ccccc2)nc2ccccc12)c1ccc(Cl)c(Cl)c1 (stereo not shown) [Example 27]	193 to 194 °C
O=C(NC(CO)c1ccccc1)c1cc(-c2ccccc2)nc2ccccc12 (stereo not shown) [Example 28]	117 to 119 °C
COC(=O)C(NC(=O)c1c(C)c(-c2ccccc2)nc2ccccc12)c1ccccc1 (stereo not shown) [Example 30]	180 to 181 °C
COC(=O)C(NC(=O)c1cc(-c2ccccc2)nc2cc(Cl)ccc12)c1ccccc1 (stereo not shown) [Example 32]	180 to 183 °C
COC(=O)C(NC(=O)c1cc(-c2ccccc2)nc2ccc(C)cc12)c1ccccc1 (stereo not shown) [Example 33]	179 to 181 °C
COCC(NC(=O)c1cc(-c2ccccc2)nc2ccccc12)c1ccccc1 (stereo not shown) [Example 34]	144 to 145 °C
COC(=O)C(NC(=O)c1cc(-c2ccccc2)nc2ccc(Cl)cc12)c1ccccc1 (stereo not shown) [Example 35]	197 to 199 °C
CCc1c(-c2ccccc2)nc2ccccc2c1C(=O)NC(C(=O)OC)c1ccccc1 (stereo not shown) [Example 36]	156 to 157 °C
CCCC(NC(=O)c1cc(-c2ccccc2)nc2ccccc12)c1ccccc1 (stereo not shown) [Example 37]	149 to 150 °C
CCc1c(-c2ccccc2)nc2ccccc2c1C(=O)NC(CC)c1ccccc1 (stereo not shown) [Example 38]	158 to 159 °C
CCC(NC(=O)c1c(N2C(=O)c3ccccc3C2=O)c(-c2ccccc2)nc2ccccc12)c1ccccc1 (stereo not shown) [Example 39]	201 to 202 °C
CCCc1c(-c2ccccc2)nc2ccccc2c1C(=O)NC(CC)c1ccccc1 (stereo not shown) [Example 40]	149 to 151 °C

Compound	melting point
CCC(NC(=O)c1c(C)c(-c2ccc(Br)cc2)nc2ccc(Br)cc12)c1ccccc1 (stereo not shown) [Example 41]	230 to 231 °C
CCC(NC(=O)c1c(C)c(-c2ccccc2)nc2ccc(Br)cc12)c1ccccc1 (stereo not shown) [Example 42]	179 to 180 °C
COC(=O)C(NC(=O)c1cc(-c2ccccc2)nc2ccc(OC)cc12)c1ccccc1 (stereo not shown) [Example 43]	209 to 211 °C
COC(=O)C(NC(=O)c1cc(-c2cc3ccccc3o2)nc2ccccc12)c1ccccc1 (stereo not shown) [Example 44]	240 to 241 °C
O=C(NC(Cc1ccccc1)c1ccccc1)c1cc(-c2ccccc2)nc2ccccc12 (stereo not shown) [Example 45]	194 to 196 °C
O=C(NC(c1ccccc1)C(F)(F)F)c1cc(-c2ccccc2)nc2ccccc12 (stereo not shown) [Example 46]	180 to 181 °C
CCC(NC(=O)c1c(OC)c(-c2ccccc2)nc2ccccc12)c1ccccc1 (stereo not shown) [Example 47]	132 to 134 °C
CCc1c(-c2ccccc2)nc2ccccc2c1C(=O)NC(CC)c1ccccc1 (stereo not shown) [Example 48]	118 to 120 °C
CCC(NC(=O)c1cc(-c2ccccc2)nc2ccccc12)c1ccc(Cl)cc1 (stereo not shown) [Example 49]	177 to 178 °C
COC(=O)C(c1ccccc1)N(C)C(=O)c1cc(-c2ccccc2)nc2ccccc12 (stereo not shown) [Example 50]	128 to 129 °C
COC(=O)C(NC(=O)c1cc(-c2ccsc2)nc2ccccc12)c1ccccc1 (stereo not shown) [Example 51]	169 to 171 °C
COC(=O)C(NC(=O)c1c2c(nc3ccccc13)-c1ccccc1CC2)c1ccccc1 (stereo not shown) [Example 52]	217 to 219 °C
COC(=O)C(NC(=O)c1cc(-c2ccc[nH]2)nc2ccccc12)c1ccccc1 (stereo not shown) [Example 53]	181 to 182 °C
COC(=O)C(NC(=O)c1cc(-c2nccs2)nc2ccccc12)c1ccccc1 (stereo not shown) [Example 54]	209 to 211 °C
CCCCC(NC(=O)c1cc(-c2ccccc2)nc2ccccc12)c1ccccc1 (stereo not shown) [Example 56]	155 to 156 °C
COC(=O)C(NC(=O)c1cc(-c2ccc(C)cc2)nc2ccccc12)c1ccccc1 (stereo not shown) [Example 57]	172 to 174 °C
COC(=O)C(NC(=O)c1cc(-c2ccccc2C)nc2ccccc12)c1ccccc1 (stereo not shown) [Example 59]	180 to 182 °C
COC(=O)C(NC(=O)c1cc(-c2ccc(OC)cc2)nc2ccccc12)c1ccccc1 (stereo not shown) [Example 60]	182 to 183 °C
O=C(NC1(c2ccccc2)CCCC1)c1cc(-c2ccccc2)nc2ccccc12 [Example 61]	164 to 165 °C
COC(=O)C(NC(=O)c1cc(-c2ccc(O)cc2)nc2ccccc12)c1ccccc1 (stereo not shown) [Example 62]	226 to 227 °C
COC(=O)C(NC(=O)c1cc(-c2ccc3c(c2)OCO3)nc2ccccc12)c1ccccc1 (stereo not shown) [Example 63]	186 to 187 °C
CC(C)(NC(=O)c1cc(-c2ccccc2)nc2ccccc12)c1ccccc1 [Example 64]	173 to 174 °C

Compound	melting point
CCC(NC(=O)c1cc(-c2ccccc2)nc2ccccc12)c1ccc(C)cc1 (stereo not shown) [Example 65]	160 to 162 °C
COC(=O)C(NC(=O)c1cc(-c2cc[nH]c2)nc2ccccc12)c1ccccc1 (stereo not shown) [Example 66]	202 to 204 °C
COC(=O)C(NC(=O)c1cc(-c2ccc(Cl)c(Cl)c2)nc2ccccc12)c1ccccc1 (stereo not shown) [Example 67]	164 to 165 °C
NCC(NC(=O)c1cc(-c2ccccc2)nc2ccccc12)c1ccccc1 (stereo not shown) [Example 68]	139 to 141 °C
CCC(NC(=O)c1c(Cl)c(-c2ccccc2)nc2ccccc12)c1ccccc1 (stereo not shown) [Example 70]	137 to 139 °C
CCC(NC(=O)c1c(Br)c(-c2ccccc2)nc2ccccc12)c1ccccc1 (stereo not shown) [Example 71]	119 to 122 °C
CC(C)C(NC(=O)c1cc(-c2ccccc2)nc2ccccc12)c1ccccc1 (stereo not shown) [Example 72]	165 to 166 °C
COC(=O)C(NC(=O)c1cc(-c2ccccc2)nc2ccc(F)cc12)c1ccccc1 (stereo not shown) [Example 75]	174 to 176 °C
COC(=O)C(NC(=O)c1cc(C2CCCCC2)nc2ccccc12)c1ccccc1 (stereo not shown) [Example 76]	151 to 153 °C
COC(=O)C(NC(=O)c1cc(-c2cccc(Cl)c2)nc2ccccc12)c1ccccc1 (stereo not shown) [Example 77]	161 to 163 °C
COC(=O)C(NC(=O)c1cc(-c2ccccc2Cl)nc2ccccc12)c1ccccc1 (stereo not shown) [Example 78]	175 to 178 °C
COC(=O)C(NC(=O)c1cc(-c2ccccc2)nc2c(OC(C)=O)cccc12)c1ccccc1 (stereo not shown) [Example 80]	193 to 194 °C
COC(=O)C(NC(=O)c1cc(-c2ccccc2)nc2c(O)cccc12)c1ccccc1 (stereo not shown) [Example 81]	178 to 180 °C
COC(=O)C(NC(=O)c1cc(-c2ccc(Cl)cc2Cl)nc2ccccc12)c1ccccc1 (stereo not shown) [Example 82]	142 to 143 °C
O=C(NC(c1ccccc1)c1ccccc1)c1cc(-c2ccccc2)nc2ccccc12 [Example 84]	182 to 184 °C
COC(=O)C(NC(=O)c1c(O)c(-c2ccccc2)nc2ccccc12)c1ccccc1 (stereo not shown) [Example 87]	125 to 127 °C
CN(C)CC(NC(=O)c1cc(-c2ccccc2)nc2ccccc12)c1ccccc1 (stereo not shown) [Example 88]	133 to 135 °C
CN(C)C(=O)C(NC(=O)c1cc(-c2ccccc2)nc2ccccc12)c1ccccc1 (stereo not shown) [Example 89]	219 to 221 °C
NC(=O)C(NC(=O)c1cc(-c2ccccc2)nc2ccccc12)c1ccccc1 (stereo not shown) [Example 90]	237 to 238 °C
O=C(NC(C(=O)N1CCCC1)c1ccccc1)c1cc(-c2ccccc2)nc2ccccc12 (stereo not shown) [Example 91]	199 to 200 °C

molecular target: T1, NK3 receptor (Cavia porcellus, UniProt P30098); experiment: Binding: displacement of [3H]-Senktide / [125I]-[Me-Phe7]-NKB, guinea-pig cortex membranes
T1 sequence (P30098 1-440): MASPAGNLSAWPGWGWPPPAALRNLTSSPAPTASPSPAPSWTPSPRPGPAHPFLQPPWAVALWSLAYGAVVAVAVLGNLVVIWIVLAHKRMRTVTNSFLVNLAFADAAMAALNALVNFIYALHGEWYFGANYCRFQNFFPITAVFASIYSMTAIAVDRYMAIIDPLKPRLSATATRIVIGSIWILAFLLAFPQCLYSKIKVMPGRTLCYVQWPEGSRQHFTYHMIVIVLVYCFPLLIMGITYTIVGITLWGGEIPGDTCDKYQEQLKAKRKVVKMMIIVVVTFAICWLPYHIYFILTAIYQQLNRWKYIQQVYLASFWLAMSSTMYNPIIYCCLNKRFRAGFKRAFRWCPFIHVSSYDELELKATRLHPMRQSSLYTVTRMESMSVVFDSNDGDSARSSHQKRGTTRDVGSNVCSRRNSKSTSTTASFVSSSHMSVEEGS
Experimental: The activity of the compounds of the present invention, as NK3 ligands, is determined by their ability to inhibit the binding of the radiolabelled NK3 ligands, [^125I]-[Me-Phe^7]-NKB or [^3H]-Senktide, to guinea-pig and human NK3 receptors (Renzetti et al, 1991, Neuropeptide, 18, 104-114; Buell et al, 1992, FEBS, 299(1), 90-95; Chung et al, 1994, Biochem. Biophys. Res. Commun., 198(3), 967-972). […] Binding assays provide for each compound tested a mean IC50 value of 2-5 separate experiments performed in duplicate or triplicate. […] The NK3-antagonist activity of the compounds of the present invention is determined by their ability to inhibit senktide-induced contraction of the guinea-pig ileum (Maggi et al, 1990, Br. J. PharmacoL, 101, 996-1000) and rabbit isolated iris sphincter muscle (Hall et al., 1991, Eur. J. PharmacoL, 199, 9-14) and human NK3 receptors-mediated Ca^++ mobilization (Mochizuki et al, 1994, J. Bio. Chem., 269, 9651-9658). Guinea-pig and rabbit in-vitro functional assays provide for each compound tested a mean KB value of 3-8 separate experiments, where KB is the concentration of the individual compound required to produce a 2-fold rightward shift in the concentration-response curve of senktide. Human receptor functional assay allows the determination of the concentration of the individual compound required to reduce by 50% (IC50 values) the Ca^++ mobilization induced by the agonist NKB.

Compound	Ki
CCC(NC(=O)c1c(C)c(-c2ccccc2)nc2ccccc12)c1ccccc1 (stereo not shown) [Example 22]	5.6 nM
CCC(NC(=O)c1c(OC)c(-c2ccccc2)nc2ccccc12)c1ccccc1 (stereo not shown) [Example 47]	8.8 nM
CCc1c(-c2ccccc2)nc2ccccc2c1C(=O)NC(CC)c1ccccc1 (stereo not shown) [Example 48]	12 nM
